{
  "source": "ChEMBL document CHEMBL4251589",
  "about": "“4-Quinolone derivatives and their activities against Gram positive pathogens” (2018)",
  "assay_type_in_all_cases": "functional",
  "key": {"[1]": {"test_system": "Staphylococcus aureus", "assay": "Potency index, ratio of CPFX MIC to compound MIC for Staphylococcus aureus 1199-3"}, "[2]": {"test_system": "Staphylococcus aureus", "assay": "Potency index, ratio of CPFX MIC to compound MIC for Staphylococcus aureus 1199B"}, "[3]": {"test_system": "Staphylococcus aureus", "assay": "Potency index, ratio of CPFX MIC to compound MIC for Staphylococcus aureus 1199"}, "[4]": {"test_system": "Staphylococcus aureus", "assay": "Antibacterial activity against Staphylococcus aureus ATCC 6538P after 18 hrs by agar dilution assay"}, "[5]": {"test_system": "Staphylococcus epidermidis", "assay": "Antibacterial activity against Staphylococcus epidermidis after 18 hrs by agar dilution assay"}, "[6]": {"test_system": "Staphylococcus aureus", "assay": "Antibacterial activity against Staphylococcus aureus"}, "[7]": {"test_system": "Staphylococcus aureus", "assay": "Antibacterial activity against methicillin-resistant Staphylococcus aureus 494"}, "[8]": {"test_system": "Staphylococcus aureus", "assay": "Antibacterial activity against Staphylococcus aureus 1199B"}, "[9]": {"test_system": "Staphylococcus aureus", "assay": "Antibacterial activity against Staphylococcus aureus 1199"}, "[10]": {"test_system": "Staphylococcus aureus", "assay": "Antibacterial activity against Staphylococcus aureus 1199-3"}, "[11]": {"test_system": "Staphylococcus aureus", "assay": "Antibacterial activity against vancomycin-resistant Staphylococcus aureus GISA 992"}, "[12]": {"test_system": "Staphylococcus aureus", "assay": "Selectivity ratio of MIC for Staphylococcus aureus 209P JC1 to MIC for methicillin-resistant Staphylococcus aureus"}, "[13]": {"assay": "Selectivity ratio of MIC for Micrococcus luteus ATCC 9341 to MIC for methicillin-resistant Staphylococcus aureus"}, "[14]": {"test_system": "Staphylococcus aureus", "assay": "Potency index, ratio of CPFX MIC to compound MIC for Staphylococcus aureus ATCC 6538P"}, "[15]": {"test_system": "Staphylococcus aureus", "assay": "Potency index, ratio of NRFX MIC to compound MIC for Staphylococcus aureus ATCC 6538P"}, "[16]": {"test_system": "Staphylococcus epidermidis", "assay": "Potency index, ratio of NRFX MIC to compound MIC for Staphylococcus epidermidis"}, "[17]": {"test_system": "Staphylococcus aureus", "assay": "Potency index, ratio of enoxacin MIC to compound MIC for Staphylococcus aureus ATCC 6538P"}, "[18]": {"test_system": "Staphylococcus epidermidis", "assay": "Potency index, ratio of enoxacin MIC to compound MIC for Staphylococcus epidermidis"}, "[19]": {"test_system": "Staphylococcus epidermidis", "assay": "Potency index, ratio of CPFX MIC to compound MIC for Staphylococcus epidermidis"}, "[20]": {"test_system": "Staphylococcus aureus", "assay": "Potency index, ratio of GTFX MIC to compound MIC for Staphylococcus aureus"}, "[21]": {"test_system": "Staphylococcus aureus", "assay": "Potency index, ratio of NRFX MIC to compound MIC for Staphylococcus aureus"}, "[22]": {"test_system": "Staphylococcus aureus", "assay": "Potency index, ratio of LMFX MIC to compound MIC for Staphylococcus aureus"}, "[23]": {"test_system": "Staphylococcus aureus", "assay": "Potency index, ratio of CPFX MIC to compound MIC for Staphylococcus aureus"}},
  "data": [
    {"smiles": "CCn1cc(C(=O)O)c(=O)c2cnc(N3CCN(Cc4ccc(CN5CCN(c6cc7c(cc6F)c(=O)c(C(=O)O)cn7C6CC6)CC5)cc4)CC3)nc21", "values": [
      {"measurement": "Ratio", "setting": "[1]", "result": ">4"},
      {"measurement": "Ratio", "setting": "[2]", "result": ">4"},
      {"measurement": "Ratio", "setting": "[3]", "result": ">4"}
    ]},
    {"smiles": "CCn1cc(C(=O)O)c(=O)c2cc(F)c(N3CCNCC3)cc21", "note": "[NORFLOXACIN]", "values": [
      {"measurement": "MIC", "setting": "[4]", "result": "0.25 to 1", "unit": "µg/mL"},
      {"measurement": "MIC", "setting": "[5]", "result": "0.25 to 1", "unit": "µg/mL"},
      {"measurement": "MIC", "setting": "[6]", "result": "0.02 to 39.06", "unit": "µg/mL"}
    ]},
    {"smiles": "O=C(O)c1cn(C2CC2)c2cc(N3CCNCC3)c(F)cc2c1=O", "note": "[CIPROFLOXACIN]", "values": [
      {"measurement": "MIC", "setting": "[4]", "result": "0.25 to 1", "unit": "µg/mL"},
      {"measurement": "MIC", "setting": "[7]", "result": "0.125 to 32", "unit": "µg/mL"},
      {"measurement": "MIC", "setting": "[5]", "result": "0.25 to 1", "unit": "µg/mL"},
      {"measurement": "MIC", "setting": "[8]", "result": "0.125 to 32", "unit": "µg/mL"},
      {"measurement": "MIC", "setting": "[9]", "result": "0.125 to 32", "unit": "µg/mL"},
      {"measurement": "MIC", "setting": "[6]", "result": "0.02 to 39.06", "unit": "µg/mL"},
      {"measurement": "MIC", "setting": "[10]", "result": "0.125 to 32", "unit": "µg/mL"},
      {"measurement": "MIC", "setting": "[11]", "result": "0.125 to 32", "unit": "µg/mL"}
    ]},
    {"smiles": "COc1c(N2CCNC(C)C2)c(F)cc2c(=O)c(C(=O)O)cn(C3CC3)c12", "note": "(stereo unspecified) [GATIFLOXACIN]", "values": [
      {"measurement": "MIC", "setting": "[6]", "result": "0.02 to 39.06", "unit": "µg/mL"}
    ]},
    {"smiles": "CCn1cc(C(=O)O)c(=O)c2cc(F)c(N3CCNC(C)C3)c(F)c21", "note": "(stereo unspecified) [LOMEFLOXACIN]", "values": [
      {"measurement": "MIC", "setting": "[6]", "result": "0.02 to 39.06", "unit": "µg/mL"}
    ]},
    {"smiles": "C=c1sc2c(C(=O)O)c(=O)c3cc(F)c(-c4ccc(N)cc4)cc3n12", "values": [
      {"measurement": "Ratio", "setting": "[12]", "result": ">=16"},
      {"measurement": "Ratio", "setting": "[13]", "result": "> 16"}
    ]},
    {"smiles": "Cn1c([N+](=O)[O-])cnc1-c1nnc(N2CCN(c3cc4c(cc3F)c(=O)c(C(=O)O)cn4C3CC3)CC2)s1", "values": [
      {"measurement": "MIC", "setting": "[4]", "result": 0.008, "unit": "µg/mL"},
      {"measurement": "Ratio", "setting": "[14]", "result": "32 - 128"},
      {"measurement": "Ratio", "setting": "[15]", "result": "32 - 128"},
      {"measurement": "MIC", "setting": "[5]", "result": 0.008, "unit": "µg/mL"},
      {"measurement": "Ratio", "setting": "[16]", "result": "32 - 128"},
      {"measurement": "Ratio", "setting": "[17]", "result": "32 - 128"},
      {"measurement": "Ratio", "setting": "[18]", "result": "32 - 128"},
      {"measurement": "Ratio", "setting": "[19]", "result": "32 - 128"}
    ]},
    {"smiles": "CCn1cc(C(=O)O)c(=O)c2cc(F)c(N3CCN(CN4C(=O)/C(=N\\c5ncc(Cc6cc(OC)c(OC)c(OC)c6)c(N)n5)c5cc(F)ccc54)C(C)C3)c(F)c21", "note": "(stereo unspecified)", "values": [
      {"measurement": "Ratio", "setting": "[20]", "result": "2 - 4111"},
      {"measurement": "Ratio", "setting": "[21]", "result": "2 - 4111"},
      {"measurement": "Ratio", "setting": "[22]", "result": "2 - 4111"},
      {"measurement": "Ratio", "setting": "[23]", "result": "2 - 4111"},
      {"measurement": "MIC", "setting": "[6]; Staphylococcus aureus, read-out: MIC", "result": 0.0095, "unit": "µg/mL"}
    ]}
  ]
}
